# Experimental data published in US20150017667A1, “MEANS AND METHODS FOR ASSESSING LIVER DISORDERS” (BASF SE, priority 2012, published 2015).
# Marks after values point to notes of the source that are not given here.
# Tested on: female rats
# Test: 28-day repeated dose oral toxicity study (OECD 407) with GC-MS/LC-MS plasma metabolite profiling, female rats
structure (smiles),measurement,setting,value
"CNC(=O)/C(=N/OC)c1ccccc1COc1cc(C)ccc1C [Dimoxystrobin, (E)-2-(methoxyimino)-N-methyl-2-[alpha-(2,5-xylyloxy)-o-tolyl]acetamide]","3-O-Methylsphingosine (d18:1), ratio versus control",day 7,2.18*
same,"5-O-Methylsphingosine (d18:1), ratio versus control",day 7,1.94*
same,"14-Methylhexadecanoic acid, ratio versus control",day 7,1.27
same,"Behenic acid (C22:0), ratio versus control",day 7,2.03*
same,"Cholesterol, ratio versus control",day 7,1.66*
same,"Coenzyme Q9, ratio versus control",day 7,1.51*
same,"DAG (C18:1,C18:2), ratio versus control",day 7,2.28*
same,"Eicosanoic acid (C20:0), ratio versus control",day 7,2.23*
same,"Glucose, ratio versus control",day 7,1.14
same,"Glycerol phosphate, lipid fraction, ratio versus control",day 7,1.68*
same,"Glycerol, lipid fraction, ratio versus control",day 7,2.08*
same,"Glycerol-3-phosphate, polar fraction, ratio versus control",day 7,1.38
same,"Heptadecanoic acid (C17:0), ratio versus control",day 7,1.81*
same,"Linoleic acid (C18:cis[9,12]2), ratio versus control",day 7,2.12*
same,"Nervonic acid (C24:cis[15]1), ratio versus control",day 7,1.83*
same,"Palmitic acid (C16:0), ratio versus control",day 7,1.99*
same,"Phosphatidylcholine (C16:0,C20:5), ratio versus control",day 7,1.33*
same,"TAG (C16:0,C18:1,C18:3), ratio versus control",day 7,4.17*
same,"TAG (C16:0,C18:2), ratio versus control",day 7,3.49*
same,"TAG (C18:1,C18:2), ratio versus control",day 7,4.18*
same,"TAG (C18:2,C18:2), ratio versus control",day 7,3.69*
same,"TAG (C18:2,C18:3), ratio versus control",day 7,3.61*
same,"TAG No 01, ratio versus control",day 7,2.62*
same,"TAG No 05, ratio versus control",day 7,2.89*
same,"TAG No 07, ratio versus control",day 7,2.5*
same,"dihomo-gamma-Linolenic acid (C20:cis[8,11,14]3), ratio versus control",day 7,2.95*
same,"erythro-Sphingosine, ratio versus control",day 7,1.86*
same,"3-O-Methylsphingosine (d18:1), ratio versus control",day 14,1.78*
same,"5-O-Methylsphingosine (d18:1), ratio versus control",day 14,1.94*
same,"14-Methylhexadecanoic acid, ratio versus control",day 14,1.15
same,"Behenic acid (C22:0), ratio versus control",day 14,2.23*
same,"Cholesterol, ratio versus control",day 14,1.7*
same,"Coenzyme Q9, ratio versus control",day 14,1.91
same,"DAG (C18:1,C18:2), ratio versus control",day 14,2.99*
same,"Eicosanoic acid (C20:0), ratio versus control",day 14,2.54*
same,"Glucose, ratio versus control",day 14,1.17
same,"Glycerol phosphate, lipid fraction, ratio versus control",day 14,1.69*
same,"Glycerol, lipid fraction, ratio versus control",day 14,2.44*
same,"Glycerol-3-phosphate, polar fraction, ratio versus control",day 14,1.32*
same,"Heptadecanoic acid (C17:0), ratio versus control",day 14,1.73*
same,"Linoleic acid (C18:cis[9,12]2), ratio versus control",day 14,2.2*
same,"Nervonic acid (C24:cis[15]1), ratio versus control",day 14,1.54*
same,"Palmitic acid (C16:0), ratio versus control",day 14,1.89*
same,"Phosphatidylcholine (C16:0,C20:5), ratio versus control",day 14,1.54*
same,"TAG (C16:0,C18:1,C18:3), ratio versus control",day 14,5.45*
same,"TAG (C16:0,C18:2), ratio versus control",day 14,4.36*
same,"TAG (C18:1,C18:2), ratio versus control",day 14,3.37*
same,"TAG (C18:2,C18:2), ratio versus control",day 14,3.82*
same,"TAG (C18:2,C18:3), ratio versus control",day 14,2.41*
same,"TAG No 01, ratio versus control",day 14,1.93*
same,"TAG No 05, ratio versus control",day 14,3.02*
same,"TAG No 07, ratio versus control",day 14,3.54*
same,"dihomo-gamma-Linolenic acid (C20:cis[8,11,14]3), ratio versus control",day 14,2.58*
same,"erythro-Sphingosine, ratio versus control",day 14,1.78*
same,"3-O-Methylsphingosine (d18:1), ratio versus control",day 28,1.52*
same,"5-O-Methylsphingosine (d18:1), ratio versus control",day 28,1.59*
same,"14-Methylhexadecanoic acid, ratio versus control",day 28,1.31*
same,"Behenic acid (C22:0), ratio versus control",day 28,2.03*
same,"Cholesterol, ratio versus control",day 28,1.75*
same,"Coenzyme Q9, ratio versus control",day 28,1.78*
same,"DAG (C18:1,C18:2), ratio versus control",day 28,2.85*
same,"Eicosanoic acid (C20:0), ratio versus control",day 28,2.08*
same,"Glucose, ratio versus control",day 28,1.15
same,"Glycerol phosphate, lipid fraction, ratio versus control",day 28,1.98*
same,"Glycerol, lipid fraction, ratio versus control",day 28,2.58*
same,"Glycerol-3-phosphate, polar fraction, ratio versus control",day 28,1.79
same,"Heptadecanoic acid (C17:0), ratio versus control",day 28,2.84*
same,"Linoleic acid (C18:cis[9,12]2), ratio versus control",day 28,2.2*
same,"Nervonic acid (C24:cis[15]1), ratio versus control",day 28,1.38*
same,"Palmitic acid (C16:0), ratio versus control",day 28,2.03*
same,"Phosphatidylcholine (C16:0,C20:5), ratio versus control",day 28,1.15*
same,"TAG (C16:0,C18:1,C18:3), ratio versus control",day 28,3.93*
same,"TAG (C16:0,C18:2), ratio versus control",day 28,3.68*
same,"TAG (C18:1,C18:2), ratio versus control",day 28,4.49*
same,"TAG (C18:2,C18:2), ratio versus control",day 28,5.11*
same,"TAG (C18:2,C18:3), ratio versus control",day 28,3.9*
same,"TAG No 01, ratio versus control",day 28,2.61*
same,"TAG No 05, ratio versus control",day 28,4.39*
same,"TAG No 07, ratio versus control",day 28,4.13*
same,"dihomo-gamma-Linolenic acid (C20:cis[8,11,14]3), ratio versus control",day 28,3.54*
same,"erythro-Sphingosine, ratio versus control",day 28,1.46*
